What all share (type): physicochemical
Data set [1] is described as follows: pH value of 1% or 5% aqueous solution of the active substance, after preparing and after 1 week on air. The protocol:
Within the scope of this invention the term “which will provide a pH value” means a pH value that is measured in an aqueous solution or dispersion of an active substance or of a mixture of the active substance with the buffering substance or of a stabilized active substance according to this invention or of a pharmaceutical formulation or of a stabilized pharmaceutical formulation of an active substance obtained according to this invention. The concentration of such an aqueous solution or dispersion is 1% or 5%. The measurement procedure is described in Examples 1-11.

The nature of data set [2]: Stability of pravastatin (lactone and impurity formation) in buffers of pH 7 to 11. To be noted: buffers pH 7 to 11 (phosphate, citrate, borate); 1, 5, 13 and 28 days. An excerpt: The third observation is that a sufficient stabilization of the active substance is already obtained at a pH of at least 7.0, but a beneficially high stability is effected at a pH of at least 8.0. We have noticed that at a pH below 8 the formation of lactone has occurred and also the amount of other impurities has increased. The presence of humidity in the air and a carbon dioxide-rich atmosphere makes the negative effect of a low pH even stronger. This is illustrated by the following experiment: Pravastatin was dissolved in different buffers with the pH in a range between 7 and 11 (F=phosphate, C=citrate, B=borate). The occurrence of pravastatin in lactone form and the formation of different degradation products (impurities) were measured after 1, 5, 13 and 28 days.

Data set [3] can be described thus: pH of pravastatin sodium crystals kept in normal air, nitrogen or carbon dioxide atmosphere. The protocol:
Another observation was that carbon dioxide from the air may irreversibly and reversibly bind to the active substance and can cause a drop of pH. This is illustrated by the following experiment: 5 g of pravastatin sodium were dissolved in 30 ml of methanol, the pH was adjusted to 10 with 3% aqueous solution of NaOH. 400 ml of ethylacetate were added and the crystals of pravastatin sodium were formed. Crystals were filtered and dried and then put into three different atmospheres: normal air, nitrogen atmosphere and carbon dioxide atmosphere. In normal air and in the nitrogen atmosphere the pH remained the same during a period of 24 hours (normal air: pH 9.2, nitrogen: pH 9.5), but in the carbon dioxide atmosphere the pH dropped in the first two minutes from 9.2 to 6.9. After 12 minutes the pH was 6.6 and after 1 hour the pH was 6.5. After that, the pH remained constant.

Take `CC[C@H](C)C(=O)O[C@H]1C[C@H](O)C=C2C=C[C@H](C)[C@H](CC[C@@H](O)C[C@@H](O)CC(=O)O)[C@H]21` [Pravastatin Sodium]: the “Value pH (1%) after 1 week on air atm” value in data set [1] (1% aqueous solution, after 1 week in air atmosphere) came out at 7.2. In data set [1] (1% aqueous solution, after preparing), the “Value pH (1%) after preparing” value is 7.4. Further, the “Value pH (5%) after 1 week on air atm” value in data set [1] (5% aqueous solution, after 1 week in air atmosphere) worked out at 7.6. Besides, the “Value pH (5%) after preparing” value in data set [1] (5% aqueous solution, after preparing) is listed as 7.7. Besides, the “pH at which formation of lactone occurred and other impurities increased” value in data set [2] is reported as “below 8”. In addition, the “pH in carbon dioxide atmosphere after 12 minutes” value in data set [3] (carbon dioxide atmosphere, 12 minutes) turned out to be 6.6. For the same molecule, the “pH in carbon dioxide atmosphere after 1 hour” value in data set [3] (carbon dioxide atmosphere, 1 hour, constant afterwards) was found to be 6.5. In data set [3] (carbon dioxide atmosphere, first two minutes), the “pH in carbon dioxide atmosphere after two minutes” value was 6.9. The “pH at start in carbon dioxide atmosphere” value in data set [3] (carbon dioxide atmosphere, starting value) was determined as 9.2. In addition, in data set [3] (crystals from solution adjusted to pH 10 with NaOH, normal air, remained the same during 24 hours), the “pH in normal air” value was 9.2. In addition, the “pH in nitrogen atmosphere” value in data set [3] (nitrogen atmosphere, remained the same during 24 hours) is 9.5.
